Source: paper PMC4960534, “Ligand binding to an Allergenic Lipid Transfer Protein Enhances Conformational Flexibility resulting in an Increase in Susceptibility to Gastroduodenal Proteolysis” (Scientific Reports, 2016)
Read-outs that look alike come from different tables or passages of the source.

Assays:
wheat LTP [1] = target: T1, wheat LTP (Triticum aestivum, UniProt P24296); experiment: CPA displacement assay (competitive, CPA as tracer); type: binding; conditions: for Ki: Cheng-Prusoff; for ΔG Wheat: ΔG = -RTln(Ki)
T1 construct: Intact protein (residues 1–90); from tissue; host or cells: wheat bran
T1 sequence (P24296 24-113): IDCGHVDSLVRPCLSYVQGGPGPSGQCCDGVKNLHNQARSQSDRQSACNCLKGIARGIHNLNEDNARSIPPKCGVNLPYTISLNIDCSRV
Description: (§1) Ligand binding was assessed using a fluorescence assay based on cis-parinaric acid originally described by Cooper et al.[22]. Fluorescence intensity was measured at 25 °C with a LS55 Luminescence Spectrometer (Perkin Elmer, Cambridge, UK) using a […] slit width for both excitation (λ = 320 nm) and emission (λ = 420 nm) and the measurement taken for no longer than 1.5–2s. CPA (3 mM in ethanol) was titrated by 1 μL injections into 1 mL of LTP solutions (5 μM in 50 mM phosphate buffer pH 7.5) in a stepwise manner. Binding curves were fitted with GraphPad Prism using the rectangular hyperbolic function of Hill’s equation. For non-fluorescent ligands, a competitive assay was developed using CPA as a tracer ligand. CPA concentrations close to the calculated Kd of each LTP[49][50] (at either 1 or 0.5 μM CPA for peach LTP and 2 or 1 μM CPA for wheat LTP in 50 mM phosphate buffer pH 7.5 or pH 2.5, 150 mM NaCl, respectively) were used. After equilibrating for 2–3 min with gentle mixing, the competing non-fluorescent ligands (1 mM of palmitic acid, 16-OH palmitic acid, 12-OH stearic acid, linoleic acid or 1-palmitoyl–sn–glycerol–3–phosphatadyl choline (PC) ethanol) were titrated into the LTP solution in 1 μL aliquots. The resulting data were fitted using a sigmoidal curve-fitting logarithm in GraphPad Prism from which the concentration able to displace 50% of the CPA (IC50) was calculated. Ki values were calculated according to Cheng-Prusoff equation[51].

peach LTP [2] = target: T2, peach LTP (Prunus persica, UniProt P81402, A9S/H76S); experiment: as above; type: binding; conditions: for ΔG Peach: ΔG = -RTln(Ki)
T2 construct: Peach LTP was purified from the skin of peach fruits; from tissue; host or cells: skin of peach fruits
Description: as §1

peach LTP [3] = target: T3, peach LTP (Prunus persica, UniProt P81402); experiment: CPA fluorescence titration, direct binding
T3 construct: Peach LTP was purified from the skin of peach fruits; from tissue; host or cells: skin of peach fruits
T3 sequence (P81402 1-91): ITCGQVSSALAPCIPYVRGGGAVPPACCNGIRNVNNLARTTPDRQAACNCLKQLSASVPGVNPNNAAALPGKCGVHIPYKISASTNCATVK
Description: as §1

wheat LTP [4] = target: T4, wheat LTP (Triticum aestivum, UniProt P24296); experiment: CPA fluorescence titration, direct binding
T4 construct: Intact protein (residues 1–90); from tissue; host or cells: wheat bran
T4 sequence (P24296 24-90 limits assumed): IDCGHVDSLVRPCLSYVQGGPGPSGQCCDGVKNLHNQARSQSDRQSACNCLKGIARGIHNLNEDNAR
Description: as §1

[5] = 50 mM phosphate, pH 7.5, displacement of 2 μM CPA
[6] = 150 mM NaCl, pH 2.5, displacement of 1 μM CPA
[7] = 50 mM phosphate, pH 7.5, Cheng-Prusoff, read-out: Ki Peach
[8] = 50 mM phosphate, pH 7.5, displacement of 1 μM CPA, read-out: IC50 Peach
[9] = 150 mM NaCl, pH 2.5, Cheng-Prusoff, read-out: Ki Peach
[10] = 150 mM NaCl, pH 2.5, displacement of 0.5 μM CPA, read-out: IC50 Peach

T2 sequence (P81402 whole entry A9S/H76S): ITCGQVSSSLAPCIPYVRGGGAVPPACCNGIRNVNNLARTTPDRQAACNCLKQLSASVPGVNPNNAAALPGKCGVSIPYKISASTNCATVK

| Compound | Ki (wheat LTP [1]; 50 mM phosphate, pH 7.5) [µM] | IC50 (wheat LTP [1]; [5]) [µM] | ΔG Wheat (wheat LTP [1]; 50 mM phosphate, pH 7.5) [kcal/mol] | IC50 (peach LTP [2]) [µM] | Ki (peach LTP [2]) [µM] | ΔG Peach (peach LTP [2]; 50 mM phosphate, pH 7.5) [kcal/mol] | Kd (peach LTP [3]; 50 mM phosphate, pH 7.5) [µM] | Kd (peach LTP [3]; 150 mM NaCl, pH 2.5) [µM] | Kd (wheat LTP [4]; 50 mM phosphate, pH 7.5) [µM] | Kd (wheat LTP [4]; 150 mM NaCl, pH 2.5) [µM] | Ki (wheat LTP [1]; 150 mM NaCl, pH 2.5) [µM] | IC50 (wheat LTP [1]; [6]) [µM] | ΔG Wheat (wheat LTP [1]; 150 mM NaCl, pH 2.5) [kcal/mol] | Ki (peach LTP [2]; [7]) [µM] | IC50 (peach LTP [2]; [8]) [µM] | Ki (peach LTP [2]; [9]) [µM] | IC50 (peach LTP [2]; [10]) [µM] | ΔG Peach (peach LTP [2]; 150 mM NaCl, pH 2.5) [kcal/mol] |
| --- | --- | --- | --- | --- | --- | --- | --- | --- | --- | --- | --- | --- | --- | --- | --- | --- | --- | --- |
| CCCCC/C=C\C/C=C\CCCCCCCC(=O)O [Linoleic acid, linoleic acid] | 5.3 ± 0.02 | 7.6 ± 0.03 | 7.19 | 1.6 ± 0.1 | 0.8 ± 0.04 | 8.29 |  |  |  |  |  |  |  |  |  |  |  |  |
| CC\C=C/C=C/C=C/C=C\CCCCCCCC(=O)O [CPA, cis-parinaric acid] |  |  |  |  |  |  | 1 ± 0.02 | 0.6 ± 0.1 | 4.5 ± 0.2 | 1.2 ± 0.1 |  |  |  |  |  |  |  |  |
| CCCCCCCCCCCCCCCC(=O)O [Palmitic acid, palmitic acid] | 3.6 ± 0.1 | 5.2 ± 0.1 | 7.41 | 1.4 ± 0.1 | 0.7 ± 0.03 | 8.39 |  |  |  |  |  |  |  |  |  |  |  |  |
| CCCCCCCCCCCCCCCC(=O)OC[C@@H](O)COP(=O)([O-])OCC[N+](C)(C)C [Phosphatidyl choline (vesicular), 1-palmitoyl–sn–glycerol–3–phosphatadyl choline] | 3.9 ± 0.1 | 5.6 ± 0.1 | 7.37 |  |  | 8.35 |  |  |  |  | 3.6 ± 0.1 | 6.8 ± 0.2 | 7.41 | 0.7 ± 0.04 | 1.5 ± 0.1 | 0.8 ± 0.1 | 1.5 ± 0.1 | 8.29 |
| 1-palmitoyl–sn–glycerol–3–phosphatadyl choline [Phosphatidyl choline] | 4.6 ± 0.1 | 6.7 ± 0.1 | 7.27 |  |  | 8.13 |  |  |  |  | 2.8 ± 0.1 | 5.3 ± 0.1 | 7.55 | 1.1 ± 0.02 | 2.2 ± 0.03 | 1 ± 0.1 | 1.8 ± 0.1 | 8.17 |
